From patent US7098350B2, “E2,E4,Z8-undecatrienoic acid and ester and carboxamide derivatives thereof, organoleptic uses thereof and processes for preparing same” (International Flavors & Fragrances Inc., priority 2003, dated 2006)

Experiments:
[1] = Organoleptic and somatosensory properties (Table I); details: at 10 ppm
Text: Specific members of the 2,4,8-undecatrienoic acid derivative genus of our invention have organoleptic and somatosensory properties as set forth in the following Table I: […]

[2] = Taste evaluation in kiwi-flavored 30° proof alcoholic beverage; details: 3 ppm compound plus 200 ppm kiwi flavor blend in 30° proof alcoholic base; control has flavor blend only
Experimental: (§1) The following formulation was prepared: […]
Flavored beverages were prepared using the above 30° proof alcoholic base. A kiwi flavor was applied to the beverages. This flavor consisted of cis-3 hexenol, trans-2 hexenal, ethyl butyrate, ethyl-2-methyl butyrate, isoamyl butyrate, ethyl acetate, ethyl isovalerate, and trans-2-hexenol in equal proportions. The control beverage contained 200 ppm of the above flavor blend. […] Another beverage was prepared containing 200 ppm of the same flavor and 3 ppm of N-isobutyl E2,E4,Z8-undecatrienamide prepared according to Example 1(B).

[3] = Taste evaluation in cola-flavored hard candy; details: 50 ppm compound in cola-flavored hard candy; control without compound
Experimental: as §1
The above formulation was added to a stainless steel pot. With constant mixing, the formulation temperature was raised to 295° F. The pot was then removed from the heat, and 1.0 grams of a cola flavor containing the ingredients in equal amounts: cinnamic aldehyde, ginger oil, lemon oil, lime oil and nutmeg oil was added and blended with the sucrose-corn syrup-water formulation. After the blending was complete, 1.2 grams of citric acid was added. The resulting liquid candy was then deposited into molds, and the molds containing the liquid candy were cooled to room temperature, yielding 200 grams of finished hard candy. […] A second candy sample was prepared using the above recipe modified by the addition of 50 ppm of N-isobutyl E2, E4, Z8-undecatrienamide prepared according the procedure of Example 1 (B).

Structure (SMILES): CC/C=C\CC/C=C/C=C/C(=O)NCC(C)C [N-isobutyl E2,E4,Z8-undecatrienamide]
- Primary Flavor or Sensory Characteristic (sensation) [1]: Strong tingle at 10 ppm.
- Flavor of beverage versus control [2]: slightly more melon rind in character than the control
- Perception / somatosensory effect of beverage versus control [2]: enhanced perception of alcohol and a tingle effect on the tongue
- Flavor and taste effect of hard candy versus control [3]: moderately strong and substantive cola profile, as well as a taste effect similar to carbonation
